Results on 16 compounds are retold here after PubChem BioAssay (NCI).

Molecules are shown by their SMILES. Values joined by “and” are separate entries in the source; they are usually repeats but may differ in a detail not shown here. Equal entries are not always repeated.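 Compound exposure: 48 hours, 5 concentrations, 96-well plates. GI50: concentration for 50% inhibition of growth. At the TGI there is no net growth.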

Test systems include UO-31 renal; UACC-257 melanoma; OVCAR-5 ovarian; CAKI-1 renal; MOLT-4 leukemia; OVCAR-3 ovarian; HOP-92 NSCLC; HL-60(TB) leukemia; OVCAR-4 ovarian; T-47D breast.
Common to all, as to assay: growth of human tumour cells (NCI), 48 h

For the compound `Cc1ccc(C(=O)C(C)N)cc1` (stereo not drawn), the TGI with UO-31 renal, in the assay on UACC-257 melanoma, in the assay on OVCAR-5 ovarian, in the assay with CAKI-1 renal, in the assay with MOLT-4 leukemia and with OVCAR-3 ovarian was more than 100 µM each time. The TGI in the assay on HOP-92 NSCLC, in the assay on HL-60(TB) leukemia and in the assay on OVCAR-4 ovarian was more than 100 µM each time.

As for `O=C(NO)c1coc2ccccc2c1=O`, the TGI in the assay with UO-31 renal is more than 100 µM; in the assay on UACC-257 melanoma, more than 100 µM; in the assay on OVCAR-5 ovarian, more than 100 µM; in the assay on CAKI-1 renal, 68.5 µM; in the assay on MOLT-4 leukemia, more than 100 µM; in the assay on HL-60(TB) leukemia, more than 100 µM. In addition, in the assay with OVCAR-4 ovarian, the TGI is more than 100 µM.

On to `CC(C)(C)[Si](C)(C)OCCCC#CCO`, for which the TGI is more than 100 µM in the assay with UO-31 renal; more than 100 µM in the assay with UACC-257 melanoma; more than 100 µM in the assay on OVCAR-5 ovarian; more than 100 µM with CAKI-1 renal; more than 100 µM in the assay on MOLT-4 leukemia; 70.9 µM in the assay on HL-60(TB) leukemia. For the same compound, the TGI in the assay on OVCAR-4 ovarian was more than 100 µM.

With `Cc1c(-c2cc3n(n2)C(c2cccs2)C(C#N)=C(c2ccccc2)N3)c(=O)n(-c2ccccc2)n1C` (stereo not drawn), the TGI is more than 100 µM with UO-31 renal; 98.7 µM with UACC-257 melanoma; more than 100 µM in the assay with OVCAR-5 ovarian; 84.2 µM in the assay on CAKI-1 renal; more than 100 µM in the assay on MOLT-4 leukemia; more than 100 µM with OVCAR-3 ovarian. Further, the TGI in the assay with HOP-92 NSCLC, in the assay with HL-60(TB) leukemia and with OVCAR-4 ovarian was more than 100 µM each time.

As to `COc1cc(/C=C/C(C)=O)ccc1OP(=O)(O)O`, the TGI in the assay with UO-31 renal, with UACC-257 melanoma, with OVCAR-5 ovarian, in the assay on CAKI-1 renal, with MOLT-4 leukemia and with OVCAR-3 ovarian was more than 100 µM each time. Also, the TGI in the assay with HOP-92 NSCLC and in the assay on OVCAR-4 ovarian was more than 100 µM in each case.

On to `COC(OC)c1cccc2c1C1(O)CCC3(CC21)OCCCCO3` (stereo not drawn), for which the TGI in the assay with UO-31 renal, in the assay on UACC-257 melanoma, in the assay with OVCAR-5 ovarian, in the assay with CAKI-1 renal, in the assay with MOLT-4 leukemia and with OVCAR-3 ovarian was more than 100 µM in each case. For the same compound, the TGI in the assay on HL-60(TB) leukemia and with OVCAR-4 ovarian was more than 100 µM in each case.

Consider `COc1cc(OC)c2c(c1OC)OCC(Cc1ccc(O)cc1)C2=O` (stereo not drawn), for which the TGI with UO-31 renal, in the assay with UACC-257 melanoma, in the assay with T-47D breast, in the assay with OVCAR-5 ovarian, with CAKI-1 renal and in the assay on MOLT-4 leukemia was more than 25 µM each time. Moreover, the TGI in the assay with OVCAR-3 ovarian, in the assay on HL-60(TB) leukemia and with OVCAR-4 ovarian was more than 25 µM throughout.

In the case of `COc1cc([C@@H]2c3cc4c(cc3[C@@H](NCCNCCO)[C@H]3COC(=O)[C@H]23)OCO4)cc(OC)c1O`, the TGI is 50 µM and 39.9 µM in the assay on UO-31 renal; > 30.5 µM and 39.9 µM in the assay on UACC-257 melanoma; 11.9 µM and 8.93 µM in the assay on T-47D breast; 51.2 µM and 25.5 µM with OVCAR-5 ovarian; 30.1 µM and > 59.5 µM in the assay on CAKI-1 renal; > 66.9 µM and 11.1 µM in the assay with OVCAR-3 ovarian. Also, in the assay with OVCAR-4 ovarian, the TGI is 47.4 µM and > 84.8 µM. Also, the GI50 in the assay on OVCAR-5 ovarian was 14 µM and 5.18 µM; in the assay with OVCAR-3 ovarian, 7.28 µM and 2.31 µM; in the assay on HL-60(TB) leukemia it was 173 nM and 46.6 nM.

As to `CC[N+]1(C)CCC(O)(c2ccc(Cl)cc2)C(C(=O)c2ccc(Cl)cc2)C1` (stereo not drawn), the TGI in the assay on UO-31 renal worked out at 34.5 µM; in the assay with UACC-257 melanoma it was 61 µM; in the assay on T-47D breast, 17.8 µM; with OVCAR-5 ovarian it was 33.1 µM; in the assay with MOLT-4 leukemia it was 41.2 µM; in the assay with OVCAR-3 ovarian it was 43.3 µM. Besides, the TGI in the assay with HL-60(TB) leukemia was more than 100 µM; in the assay with OVCAR-4 ovarian it was 78.4 µM.

In the case of `O=C(N/N=C1\CCc2ccccc2C1)N/N=C1\CCc2ccccc2C1`, the TGI in the assay with UO-31 renal, with UACC-257 melanoma, in the assay with T-47D breast, in the assay on OVCAR-5 ovarian, in the assay with CAKI-1 renal and in the assay with MOLT-4 leukemia was more than 10 µM each time. In addition, the TGI with OVCAR-3 ovarian, with HL-60(TB) leukemia and in the assay with OVCAR-4 ovarian was more than 10 µM in each case.

With `COc1cc(N=NN(C)C)c(C(C)c2c3cc(OC)c(OC)cc3cc[n+]2C)cc1OC` (stereo not drawn), the TGI in the assay with UO-31 renal was more than 100 µM; in the assay on UACC-257 melanoma it was more than 100 µM; in the assay on T-47D breast, 76.2 µM; in the assay on OVCAR-5 ovarian it was more than 100 µM; in the assay on CAKI-1 renal, more than 100 µM; with MOLT-4 leukemia it was more than 100 µM. Moreover, the TGI with OVCAR-3 ovarian and in the assay with OVCAR-4 ovarian was more than 100 µM in each case.

Take `C=C=C(C)[Si](C)(C)C`: the TGI with UO-31 renal, with UACC-257 melanoma, in the assay with T-47D breast, in the assay on OVCAR-5 ovarian, in the assay on CAKI-1 renal and in the assay with MOLT-4 leukemia was more than 100 µM each time. The TGI in the assay on OVCAR-3 ovarian, in the assay on HL-60(TB) leukemia and in the assay on OVCAR-4 ovarian was more than 100 µM each time.

Consider `Cc1cc2[nH]c3c(C#N)c(-c4ccccc4)c(N=Nc4cccc(C(F)(F)F)c4)c(=O)n3c2cc1C`, for which the TGI is more than 100 µM in the assay on UO-31 renal; more than 100 µM in the assay with UACC-257 melanoma; more than 100 µM in the assay on T-47D breast; more than 100 µM in the assay on OVCAR-5 ovarian; more than 100 µM in the assay on CAKI-1 renal; 57 µM in the assay with OVCAR-3 ovarian. Moreover, the TGI in the assay with OVCAR-4 ovarian is more than 100 µM.

Regarding `CCOP(=O)(Nc1ccc(-c2ccccc2)cc1)OCC`, the TGI in the assay with UO-31 renal, in the assay with UACC-257 melanoma, with OVCAR-5 ovarian, in the assay with CAKI-1 renal, in the assay with MOLT-4 leukemia and in the assay with OVCAR-3 ovarian was more than 100 µM each time. Besides, the TGI in the assay on HOP-92 NSCLC and in the assay on OVCAR-4 ovarian was more than 100 µM in each case.

`O=P(O)(O)C(CSc1ccccc1)P(=O)(O)O`: the TGI in the assay with UO-31 renal is more than 100 µM; in the assay with UACC-257 melanoma, more than 100 µM; with OVCAR-5 ovarian it was more than 100 µM; in the assay on CAKI-1 renal, more than 100 µM; with MOLT-4 leukemia, more than 100 µM; in the assay with OVCAR-3 ovarian, more than 69.2 µM. For the same compound, the TGI in the assay with HOP-92 NSCLC, in the assay on HL-60(TB) leukemia and in the assay on OVCAR-4 ovarian was more than 100 µM each time.

Turning to `CC(=O)[O-].CC(=O)[O-].O=C(N/N=C/c1cc(Cl)cc(Cl)c1[OH2+])c1ccncc1.[Co+2]`, the TGI in the assay on UO-31 renal was more than 100 µM; in the assay with UACC-257 melanoma it was more than 100 µM; with OVCAR-5 ovarian it was more than 100 µM; with MOLT-4 leukemia, more than 100 µM; with OVCAR-3 ovarian it was more than 100 µM; with HOP-92 NSCLC, 95.9 µM. In the assay with HL-60(TB) leukemia, this compound showed a TGI of more than 100 µM. For the same compound, the GI50 with HOP-92 NSCLC was 23.6 µM.
